A word on the EC50: it is the concentration needed to bring the measured effect to its halfway point. Lower therefore signals a more potent agent.

Structures can show the parent of a compound that is named as a salt. Some results are limits rather than exact numbers.

Consider 22 compounds from US20080085886A1, “Aza-benzofuranyl compounds and methods of use” (GENENTECH, INC., priority 2006, published 2008).

The subject of assay [1] is cellular p-ERK in HCT116 human colorectal carcinoma / A375 human malignant melanoma cell lines. Kind of assay: Phospho-ERK cell-based assay (ELISA), Example 4. As to conditions: in either one of the cell lines (HCT116, A375), 2 h or 24 h exposure. On the technique in general: ELISA stands for enzyme-linked immunosorbent assay.
Assay [2] concerns HCT 116 human colorectal carcinoma / A375 human malignant melanoma cell lines. The assay is described as follows: Cell proliferation assay (CellTiter-Glo), Example 3. Type of assay: cell-based. As to conditions: in either one of the cell lines (HCT 116, A375), 72 h. Here is the method: Example 3 Cell Proliferation Assay
Compounds are tested in a cell proliferation assay using the following cell lines:
HCT 116 human colorectal carcinoma (ATCC)
A375 human malignant melanoma (ATCC)
Both cell lines are maintained in DMEM/F12 (1:1) media (Gibco) supplemented with 10% FCS at 37° C. in a 5% CO2 humidified incubator.
Cells are seeded in 96-well plates at 2,000 cells/well and after 24 hours they are exposed to different concentrations of compounds in 0.83% DMSO. Cells are grown for a further 72 h, and an equal volume of CellTiter-Glo reagent (Promega) is added to each well. This lyses the cells and generates a luminescent signal proportional to the amount of ATP released (and therefore proportional to the number of cells in the well) that can be detected using a multiwell luminometer.
EC50 values are calculated using the XLfit software package (version 2.0.5).
Background: In ATP-based viability assays light output follows the ATP content of the culture.

On to `O=C(NOC[C@H](O)CO)c1oc2ccncc2c1Nc1ccc(I)cc1Cl` [Example 13, 3-(2-Chloro-4-iodo-phenylamino)-furo[3,2-c]pyridine-2-carboxylic acid ((R)-2,3-dihydroxy-propoxy)-amide], for which the EC50 in assay [1] and in assay [2] was below 10 µM in each case.

As for `O=C(NOC[C@H](O)CO)c1oc2ccncc2c1Nc1cc(F)c(I)cc1F` [Example 15, 3-(2,5-Difluoro-4-iodo-phenylamino)-furo[3,2-c]pyridine-2-carboxylic acid ((R)-2,3-dihydroxy-propoxy)-amide], the EC50 in assay [1] and in assay [2] was below 10 µM in each case.

For `CC(C)(C)OC(=O)N1CCC(ONC(=O)c2oc3ccncc3c2Nc2ccc(I)cc2F)CC1` [Example 16, 4-{[3-(2-Fluoro-4-iodo-phenylamino)-furo[3,2-c]pyridine-2-carbonyl]aminooxy}-piperidine-1-carboxylic acid tert-butyl ester], the EC50 in assay [1] and in assay [2] was below 10 µM in each case.

Turning to `O=C(NOC[C@H](O)CO)c1oc2c(Br)cncc2c1Nc1ccc(I)cc1F` [Example 18, 7-Bromo-3-(2-fluoro-4-iodo-phenylamino)-furo[3,2-c]pyridine-2-carboxylic acid ((R)-2,3-dihydroxy-propoxy)amide], the EC50 in assay [1] and in assay [2] was below 10 µM in each case.

As to `O=C(NOC1CCNCC1)c1oc2ccncc2c1Nc1ccc(I)cc1F` [Example 20, 3-(2-Fluoro-4-iodo-phenylamino)-furo[3,2-c]pyridine-2-carboxylic acid (piperidin-4-yloxy)-amide mono formate salt], the EC50 in assay [1] and in assay [2] was below 10 µM each time.

As to `NC(=O)c1oc2ccncc2c1Nc1ccc(I)cc1F` [Example 21, 3-(2-Fluoro-4-iodo-phenylamino)-furo[3,2-c]pyridine-2-carboxylic acid amide], the EC50 in assay [1] and in assay [2] was below 10 µM in each case.

As to `CN(c1ccc(I)cc1F)c1c(C(=O)NOCCO)oc2ccncc12` [Example 22, 3-[(2-Fluoro-4-iodo-phenyl)-methyl-amino]-furo[3,2-c]pyridine-2-carboxylic acid (2-hydroxy-ethoxy)-amide], the EC50 in assay [1] and in assay [2] was below 10 µM throughout.

As to `O=C(NO)c1oc2ccncc2c1Nc1ccc(I)cc1F` [Example 24, 3-(2-Fluoro-4-iodo-phenylamino)-furo[3,2-c]pyridine-2-carboxylic acid hydroxyamide], the EC50 in assay [1] and in assay [2] was below 10 µM in each case.

Take `O=C(NOC1CCOCC1)c1oc2ccncc2c1Nc1ccc(I)cc1F` [Example 25, 3-(2-Fluoro-4-iodo-phenylamino)-furo[3,2-c]pyridine-2-carboxylic acid (tetrahydro-pyran-4-yloxy)-amide]: the concentration giving a half-maximal response (EC50) in assay [1] and in assay [2] was below 10 µM in each case.

Regarding `O=C(c1oc2ccncc2c1Nc1ccc(I)cc1F)N1CC(O)CO1` (centres unmarked) [Example 28, [3-(2-Fluoro-4-iodo-phenylamino)-furo[3,2-c]pyridin-2-yl]-(4-hydroxy-isoxazolidin-2-yl)-methanone], the EC50 in assay [1] and in assay [2] was below 10 µM each time.

As for `NCCONC(=O)c1oc2ccncc2c1Nc1ccc(I)cc1F` [Example 31, 3-(2-Fluoro-4-iodo-phenylamino)-furo[3,2-c]pyridine-2-carboxlic acid (2-amino-ethoxy)-amide], the EC50 in assay [1] and in assay [2] was below 10 µM each time.

Regarding `CSc1ccc(Nc2c(C(=O)NOCCO)oc3ccncc23)c(F)c1` [Example 35, 3-(2-Fluoro-4-methylsulfanyl-phenylamino)-furo[3,2-c]pyridine-2-carboxylic acid (2-hydroxy-ethoxy)-amide], the EC50 in assay [1] and in assay [2] was below 10 µM throughout.

On to `O=C(NO[C@H]1CCNC1)c1oc2ccncc2c1Nc1ccc(I)cc1F` [Example 38, 3-(2-Fluoro-4-iodo-phenylamino)-furo[3,2-c]pyridine-2-carboxylic acid ((S)-pyrrolidin-3-yloxy)-amide mono formate salt], for which the EC50 in assay [1] and in assay [2] was below 10 µM each time.

Consider `O=C(NOCCO)c1oc2c(Cl)cncc2c1Nc1ccc(I)cc1F` [Example 39, 7-Chloro-3-(2-fluoro-4-iodo-phenyl-amino)-furo[3,2-c]pyridine-2-carboxylic acid (2-hydroxy-ethoxy)-amide], for which the EC50 in assay [1] and in assay [2] was below 10 µM throughout.

For the compound `O=C(NOC1CNC1)c1oc2ccncc2c1Nc1ccc(I)cc1F` [Example 41, 3-(2-Fluoro-4-iodo-phenylamino)-furo[3,2-c]pyridine-2-carboxylic acid (azetidin-3-yloxy)-amide mono formate salt], the concentration giving a half-maximal response (EC50) in assay [1] and in assay [2] was below 10 µM in each case.

With `CS(=O)(=O)NCCONC(=O)c1oc2ccncc2c1Nc1ccc(I)cc1F` [Example 109, 3-(2-Fluoro-4-iodo-phenylamino)-furo[3,2-c]pyridine-2-carboxylic acid (2-methanesulfonylamino-ethoxy)-amide], the concentration for a half-maximal effect (EC50) in assay [1] and in assay [2] was below 10 µM each time.

For `O=C(NOCCO)c1oc2c(-c3ccccc3)cncc2c1Nc1ccc(I)cc1F` [Example 133, 3-(2-Fluoro-4-iodo-phenylamino)-7-phenyl-furo[3,2-c]pyridine-2-carboxylic acid (2-hydroxy-ethoxy)-amide], the EC50 in assay [1] and in assay [2] was below 10 µM throughout.

For the compound `Cc1cncc2c(Nc3ccc(I)cc3F)c(C(=O)NOCCO)oc12` [Example 134, 3-(2-Fluoro-4-iodo-phenylamino)-7-methyl-furo[3,2-c]pyridine-2-carboxylic acid (2-hydroxy-ethoxy)-amide], the 50% effective concentration (EC50) in assay [1] and in assay [2] was below 10 µM in each case.

For `O=C(NOC[C@H](O)CO)c1oc2c(Cl)cncc2c1Nc1ccc(I)cc1F` [Example 138, 7-Chloro-3-(2-fluoro-4-iodo-phenylamino)-furo[3,2-c]pyridine-2-carboxylic acid ((R)-2,3-dihydroxy-propoxy)-amide], the EC50 in assay [1] and in assay [2] was below 10 µM in each case.

With `O=C(NOC1CCCNC1)c1oc2ccncc2c1Nc1ccc(I)cc1F` (centres unmarked) [Example 140, 3-(2-Fluoro-4-iodo-phenylamino)-furo[3,2-c]pyridine-2-carboxylic acid (piperdin-3-yloxy)-amide], the EC50 in assay [1] and in assay [2] was below 10 µM in each case.

In the case of `O=C(NOC[C@@H]1CCCN1)c1oc2ccncc2c1Nc1ccc(I)cc1F` [Example 141, 3-(2-Fluoro-4-iodo-phenylamino)-furo[3,2-c]pyridine-2-carboxylic acid ((S)-1-pyrrolidin-2-ylmethoxy)-amide], the EC50 in assay [1] and in assay [2] was below 10 µM each time.

On to `O=C(c1oc2ccncc2c1Nc1ccc(I)cc1F)N1C[C@H](O)[C@@H](O)[C@H]1CO` [Example 160, (3-(2-fluoro-4-iodophenylamino)furo[3,2-c]pyridin-2-yl)((2R,3S,4S)-3,4-dihydroxy-2-(hydroxymethyl)pyrrolidin-1-yl)methanone], for which the EC50 in assay [1] and in assay [2] was below 10 µM in each case.
